Assay results as given in publication PMC6099574, “Synthesis, Design, and Structure–Activity Relationship of the Pyrimidone Derivatives as Novel Selective Inhibitors of Plasmodium falciparum Dihydroorotate Dehydrogenase” (Molecules : A Journal of Synthetic Chemistry and Natural …, 2018).
Like-named read-outs stand apart in the source and are kept apart here.

Experiments:
[1] = target: T1, PfDHODH (Phe158–Ser569) (Plasmodium falciparum, UniProt Q08210); experiment: In vitro enzyme assay, PfDHODH (DCIP reduction); type: biochemical; conditions: for inhibitory activity against PfDHODH (in words): qualitative statement
T1 construct: enzyme activity determination of PfDHODH (Phe158–Ser569) and hDHODH (Met30–Arg396); made in house
Experimental: Protein expression, purification, and enzyme activity determination of PfDHODH (Phe158–Ser569) and hDHODH (Met30–Arg396) were performed according to our previous work. The enzymes were diluted to a final concentration of 10 nM using the assay buffer containing 50 mM HEPES (pH 8.0), 150 mM KCl, 0.1% Triton X-100 supplemented with 100 µM UQ0, and 120 µM DCIP. The mixture was transferred into a 96-well plate and incubated with or without various amounts of inhibitors for 5 min at room temperature, and then the dihydroorotate was added to a final concentration of 500 µM to initiate the reaction. The reaction was monitored by measuring the decrease in DCIP in the absorption at 600 nm at each 30 s over a period of 6 min. […] Percent inhibition relative to no inhibitor control was calculated by (1 − Vi/V0) × 100. For the determination of the IC50 value of the inhibitor, eight or nine different concentrations were applied. Each inhibitor concentration point was tested in triplicate, and the IC50 values were calculated using the sigmoidal fitting option of the program Origin 8.0 (Originlab, Northampton, MA, US).

[2] = target: T2, hDHODH (Met30–Arg396) (Homo sapiens, UniProt Q02127); experiment: In vitro enzyme assay, hDHODH (DCIP reduction); type: biochemical; conditions: for IC50: in vitro enzyme assay
T2 construct: enzyme activity determination of PfDHODH (Phe158–Ser569) and hDHODH (Met30–Arg396); made in house
Experimental: Protein expression, purification, and enzyme activity determination of PfDHODH (Phe158–Ser569) and hDHODH (Met30–Arg396) were performed according to our previous work. The enzymes were diluted to a final concentration of 10 nM using the assay buffer containing 50 mM HEPES (pH 8.0), 150 mM KCl, 0.1% Triton X-100 supplemented with 100 µM UQ0, and 120 µM DCIP. The mixture was transferred into a 96-well plate and incubated with or without various amounts of inhibitors for 5 min at room temperature, and then the dihydroorotate was added to a final concentration of 500 µM to initiate the reaction. The reaction was monitored by measuring the decrease in DCIP in the absorption at 600 nm at each 30 s over a period of 6 min. Brequinar and DSM1 were measured as the positive controls for hDHODH and PfDHODH, respectively. Percent inhibition relative to no inhibitor control was calculated by (1 − Vi/V0) × 100. For the determination of the IC50 value of the inhibitor, eight or nine different concentrations were applied. Each inhibitor concentration point was tested in triplicate, and the IC50 values were calculated using the sigmoidal fitting option of the program Origin 8.0 (Originlab, Northampton, MA, US).

[3] = target: T1, PfDHODH (Phe158–Ser569); set-up: method as in PMID 24073986; conditions: previous work; read-out: IC50 against PfDHODH; cited from earlier work
[4] = target: T2, hDHODH (Met30–Arg396); set-up: method as in PMID 24073986; conditions: previous work; cited from earlier work
[5] = system: 3D7 cells; set-up: method as in PMID 24073986; conditions: read-out: IC50 parasite growth in vitro, 3D7 cells; cited from earlier work
[6] = system: Dd2 cells; set-up: method as in PMID 24073986; conditions: read-out: IC50 parasite growth in vitro, Dd2 cells; cited from earlier work
[7] = set-up: method as in PMID 24073986; conditions: cited from earlier work
[8] = set-up: method as in PMID 24073986; conditions: cited from earlier work; remark: listed apart in the source
[9] = set-up: method as in PMID 27641613; conditions: compared with DSM 265; cited from earlier work
[10] = set-up: method as in PMID 27641613; conditions: compared with DSM 265; cited from earlier work; remark: listed apart in the source
[11] = set-up: method as in PMID 27641613; conditions: compared with DSM 265; cited from earlier work; remark: listed apart in the source
[12] = in vitro enzyme assay, read-out: IC50 (μM) PfDHODH

T2 sequence (Q02127 29-395 limits assumed): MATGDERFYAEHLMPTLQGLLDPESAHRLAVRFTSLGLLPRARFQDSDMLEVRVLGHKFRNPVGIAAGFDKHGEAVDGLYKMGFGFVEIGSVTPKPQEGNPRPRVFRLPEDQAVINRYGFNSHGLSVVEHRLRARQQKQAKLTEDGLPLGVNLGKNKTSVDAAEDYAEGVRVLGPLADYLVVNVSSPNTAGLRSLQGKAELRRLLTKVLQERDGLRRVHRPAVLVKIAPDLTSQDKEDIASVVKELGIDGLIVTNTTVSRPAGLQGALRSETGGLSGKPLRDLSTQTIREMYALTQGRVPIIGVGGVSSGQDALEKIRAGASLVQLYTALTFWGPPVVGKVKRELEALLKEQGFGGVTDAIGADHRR
T1 sequence (Q08210 158-569): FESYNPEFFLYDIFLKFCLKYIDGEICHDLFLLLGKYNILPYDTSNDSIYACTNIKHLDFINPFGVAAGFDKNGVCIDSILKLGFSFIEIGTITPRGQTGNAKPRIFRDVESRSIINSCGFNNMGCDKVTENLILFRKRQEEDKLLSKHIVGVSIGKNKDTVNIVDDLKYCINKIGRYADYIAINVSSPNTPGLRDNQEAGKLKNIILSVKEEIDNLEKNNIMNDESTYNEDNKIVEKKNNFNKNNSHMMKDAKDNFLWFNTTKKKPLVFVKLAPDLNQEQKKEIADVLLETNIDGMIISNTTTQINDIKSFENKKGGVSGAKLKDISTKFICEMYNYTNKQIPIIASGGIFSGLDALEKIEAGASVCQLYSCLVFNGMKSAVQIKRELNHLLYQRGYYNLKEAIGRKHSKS

In the case of `NN1CN(c2ccc3ccccc3c2)C2=C(C(=O)CO2)C1=O` [Compound 26, 3-Amino-1-(naphthalen-2-yl)-2,3-dihydrofuro[2,3-d]pyrimidine-4,5(1H,6H)-dione], the “fold more active against PfDHODH than compound 20” value ([1]; compared with compound 20) is reported as 3 fold, the IC50 [1, 12] is reported as 0.023 ± 0.001 µM and the “species selectivity over hDHODH” value ([2]; PfDHODH versus hDHODH) is reported as greater than 400 fold. For the same molecule, the IC50 [2] was greater than 10 µM and the melting point was 168.4 to 169.2 °C.
Molecule `CNC(=O)C1=C(Nc2ccc3ccccc3c2)OCC1=O` [Compound 14, N-Methyl-2-(naphthalen-2-ylamino)-4-oxo-4,5-dihydrofuran-3-carboxamide] has an IC50 [1, 12] of 9 ± 1 µM, an IC50 [2] greater than 10 µM and a melting point of 126.3 to 126.9 °C.
For `O=C(O)C1=C(Nc2ccc3ccccc3c2)OCC1=O` [Compound 11, 2-(Naphthalen-2-ylamino)-4-oxo-4,5-dihydrofuran-3-carboxylic acid], the IC50 [1, 12] was 0.106 ± 0.009 µM, the “inhibitory activity against PfDHODH (in words)” value (“inhibitory activity” for short) [1] was “lower inhibitory activity in comparison with 10” and the IC50 [2] was greater than 10 µM. For the same molecule, the melting point was 164.4 to 165 °C.
Work on `CCN1CN(c2ccc3ccccc3c2)C2=C(C(=O)CO2)C1=O` [Compound 23, 3-Ethyl-1-(naphthalen-2-yl)-2,3-dihydrofuro[2,3-d]pyrimidine-4,5(1H,6H)-dione] yielded an IC50 [1, 12] of 4 ± 1 µM, an IC50 [2] greater than 10 µM and a melting point of 128.3 to 129 °C.
With `CCNC(=O)C1=C(Nc2ccccc2)OCC1=O` [Compound 12, N-Ethyl-4-oxo-2-(phenylamino)-4,5-dihydrofuran-3-carboxamide] the IC50 [1, 12] was greater than 10 µM, the “inhibitory activity” value [1] was “inactive” and the IC50 [2] was 2.4 ± 0.1 µM. It also gave a melting point of 146.9 to 147.4 °C.
In the case of `CCOC(=O)C1=C(Nc2ccc3ccccc3c2)OCC1=O` [Compound 10], the IC50 [3] is listed as 0.006 µM, the “species selectivity over hDHODH” value [4] is listed as > 14,000 fold and the IC50 [5] is listed as 0.015 µM. The IC50 [6] was 0.018 µM, the “efficacy in vivo (in words)” value [7] was “less effective in vivo” and the “metabolic properties (in words)” value [8] was “poor metabolic properties”.
Molecule `CCCN1CN(c2ccc3ccccc3c2)C2=C(C(=O)CO2)C1=O` [Compound 24, 1-(Naphthalen-2-yl)-3-propyl-2,3-dihydrofuro[2,3-d]pyrimidine-4,5(1H,6H)-dione] has an IC50 [1, 12] of 12 ± 6 µM, an IC50 [2] greater than 10 µM and a melting point of 128.6 to 129.7 °C.
In the case of `NNC(=O)C1=C(Nc2ccc3ccccc3c2)OCC1=O` [Compound 20, 2-(Naphthalen-2-ylamino)-4-oxo-4,5-dihydrofuran-3-carbohydrazide], the IC50 [1, 12] is reported as 0.07 ± 0.01 µM, the IC50 [2] is reported as greater than 10 µM and the melting point is reported as 167.3 to 167.9 °C.
With `O=C1COC(Nc2ccc3ccccc3c2)=C1C(=O)NC1CC1` [Compound 18, N-Cyclopropyl-2-(naphthalen-2-ylamino)-4-oxo-4,5-dihydrofuran-3-carboxamide] the IC50 [1, 12] was 6 ± 1 µM, the IC50 [2] was greater than 10 µM and the melting point was 140.8 to 141.6 °C.
With `CCNC(=O)C1=C(Nc2ccc3c(c2)CCC3)OCC1=O` [Compound 13, 2-[(2,3-Dihydro-1H-inden-5-yl)amino]-N-ethyl-4-oxo-4,5-dihydrofuran-3-carboxamide] the IC50 [1, 12] was greater than 10 µM, the IC50 [2] was greater than 10 µM and the melting point was 127.7 to 128.2 °C.
In the case of `Cc1cc(Nc2ccc(C(F)(F)F)nc2)n2nc(C(C)(F)F)nc2n1` [Compound 9], the “solubility (in words)” value [9] is given as “improved solubility”, the “intrinsic clearance (in words)” value [10] is given as “lower intrinsic clearance” and the “plasma exposure after oral dosing (in words)” value [11] is given as “increased plasma exposure after oral dosing”.
For `CCCNC(=O)C1=C(Nc2ccc3ccccc3c2)OCC1=O` [Compound 16, 2-(Naphthalen-2-ylamino)-4-oxo-N-propyl-4,5-dihydrofuran-3-carboxamide], the IC50 [1, 12] was greater than 10 µM, the “inhibitory activity” value [1] was “lost their activities” and the IC50 [2] was greater than 10 µM.
`CCN1CN(c2ccc3c(c2)CCC3)C2=C(C(=O)CO2)C1=O` [Compound 21, 1-(2,3-Dihydro-1H-inden-5-yl)-3-ethyl-2,3-dihydrofuro[2,3-d]pyrimidine-4,5(1H,6H)-dione] showed an IC50 [1, 12] greater than 10 µM, an IC50 [2] greater than 10 µM and a melting point of 128.6 to 129.4 °C.
Work on `O=C1COC2=C1C(=O)N(C1CC1)CN2c1ccc2ccccc2c1` [Compound 25, 3-Cyclopropyl-1-(naphthalen-2-yl)-2,3-dihydrofuro[2,3-d]pyrimidine-4,5(1H,6H)-dione] yielded an IC50 [1] of 5 ± 1 µM, an IC50 [2] greater than 10 µM and a melting point of 128.8 to 129.5 °C.
With `O=C1COC(Nc2ccc3ccccc3c2)=C1C(=O)NCC1CC1` [Compound 19, N-(Cyclopropylmethyl)-2-(naphthalen-2-ylamino)-4-oxo-4,5-dihydrofuran-3-carboxamide] the IC50 [1, 12] was greater than 10 µM, the “inhibitory activity” value [1] was “lost the inhibitory activity” and the IC50 [2] was greater than 10 µM. For the same molecule, the melting point was 164.8 to 165.3 °C.
Work on `CN1CN(c2ccc3ccccc3c2)C2=C(C(=O)CO2)C1=O` [Compound 22, 3-Methyl-1-(naphthalen-2-yl)-2,3-dihydrofuro[2,3-d]pyrimidine-4,5(1H,6H)-dione] yielded an IC50 [1, 12] of 8 ± 1 µM, an IC50 [2] greater than 10 µM and a melting point of 127.9 to 128.5 °C.
For `CCNC(=O)C1=C(Nc2ccc3ccccc3c2)OCC1=O` [Compound 15, N-Ethyl-2-(naphthalen-2-ylamino)-4-oxo-4,5-dihydrofuran-3-carboxamide], the IC50 [1, 12] was 4.8 ± 0.4 µM, the IC50 [2] was greater than 10 µM and the melting point was 121.8 to 123 °C.
